In BindingDB's records for doi:10.1021/jm00021a005 (University of Wisconsin-Madison, 1995):
pKi: −log10 of the molar value.

target: Peptidyl-prolyl cis-trans isomerase A, cyclophilin A (Homo sapiens) (UniProt P62937); assay: The compound was tested for inhibition of […] isomerase (PPIase).
Sequence (P62937 whole entry, looked up): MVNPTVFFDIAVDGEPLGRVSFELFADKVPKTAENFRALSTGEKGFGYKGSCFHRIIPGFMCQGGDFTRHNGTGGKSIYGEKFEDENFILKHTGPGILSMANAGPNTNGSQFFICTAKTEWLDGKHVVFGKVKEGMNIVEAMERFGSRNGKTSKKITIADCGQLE

pKi	Structure (SMILES)
8.22	C/C=C/CC(C)[C@@H](O)[C@H]1C(=O)N[C@@H](CC)C(=O)N(C)CC(=O)N(C)[C@@H](CC(C)C)C(=O)N[C@@H](C(C)C)C(=O)N(C)[C@H](CC(C)C)C(=O)N[C@H](Cc2ccccc2)C(=O)N[C@@H](CO)C(=O)N(C)[C@H](CC(C)C)C(=O)N(C)[C@@H](CC(C)C)C(=O)N(C)[C@H](C(C)C)C(=O)N1C (stereo partly drawn) [15-Benzyl-30-ethyl-12-hydroxymethyl-33-(1-hydroxy-2-methyl-hex-4-enyl)-6,9,18,24-tetraisobutyl-3,21-diisopropyl-1,4,7,10,19,25,28-heptamethyl-1,4,7,10,13,16,19,22,25,28,31undecaaza-cyclotritriacontan-2,5,8,11,14,17,20,23,26,29,32-undecaone]
8.22	C/C=C/CC(C)C(O)[C@H]1C(=O)N[C@@H](CC)C(=O)N(C)[C@H](C)C(=O)N(C)[C@@H](CC(C)C)C(=O)N[C@@H](C(C)C)C(=O)N(C)[C@H](CC(C)C)C(=O)N[C@H](Cc2ccccc2)C(=O)N[C@H](C)C(=O)N(C)[C@H](CC(C)C)C(=O)N(C)[C@@H](CC(C)C)C(=O)N(C)[C@H](C(C)C)C(=O)N1C (stereo partly drawn) [15-Benzyl-30-ethyl-33-(1-hydroxy-2-methyl-hex-4-enyl)-6,9,18,24-tetraisobutyl-3,21-diisopropyl-1,4,7,10,12,19,25,27,28-nonamethyl-1,4,7,10,13,16,19,22,25,28,31undecaaza-cyclotritriacontan-2,5,8,11,14,17,20,23,26,29,32-undecaone]
7.48	C/C=C/CC(C)[C@@H](O)[C@H]1C(=O)N[C@@H](CC)C(=O)N(C)CC(=O)N(C)[C@@H](CC(C)C)C(=O)N[C@@H](C(C)C)C(=O)N(C)[C@H](CC(C)C)C(=O)N[C@H](Cc2ccccc2)C(=O)N[C@H](C)C(=O)N(C)[C@H](CC(C)C)C(=O)N(C)[C@@H](CC(C)C)C(=O)N(C)[C@H](C(C)C)C(=O)N1C (stereo partly drawn) [15-Benzyl-30-ethyl-33-(1-hydroxy-2-methyl-hex-4-enyl)-6,9,18,24-tetraisobutyl-3,21-diisopropyl-1,4,7,10,12,19,25,28-octamethyl-1,4,7,10,13,16,19,22,25,28,31undecaaza-cyclotritriacontan-2,5,8,11,14,17,20,23,26,29,32-undecaone]
